Data reported in patent publication US10881653B2, “Tricyclic compounds and their use in the treatment of cancer” (The United States of America, as represented by the …, priority 2015, dated 2021).
Structures can show the parent of a compound that is named as a salt.

Experiments:
[1] = molecular target: T1, gluthathione reductase (GR) (Homo sapiens, UniProt P00390); assay: Inhibition of recombinant GR (GSSG assay); format: biochemical
T1 sequence (P00390 44-522): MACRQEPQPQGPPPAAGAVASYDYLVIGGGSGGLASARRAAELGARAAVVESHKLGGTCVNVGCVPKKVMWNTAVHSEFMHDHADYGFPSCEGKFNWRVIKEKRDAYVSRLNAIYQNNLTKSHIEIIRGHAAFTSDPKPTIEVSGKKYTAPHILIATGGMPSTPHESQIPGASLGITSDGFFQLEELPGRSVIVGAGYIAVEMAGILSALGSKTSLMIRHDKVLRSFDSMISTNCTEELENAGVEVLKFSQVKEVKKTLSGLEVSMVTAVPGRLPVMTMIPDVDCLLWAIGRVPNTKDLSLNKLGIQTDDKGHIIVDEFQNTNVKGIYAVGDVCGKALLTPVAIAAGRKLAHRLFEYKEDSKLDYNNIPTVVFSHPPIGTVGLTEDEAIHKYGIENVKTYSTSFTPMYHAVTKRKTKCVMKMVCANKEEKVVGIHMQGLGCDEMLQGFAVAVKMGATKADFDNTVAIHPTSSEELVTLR
In short: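 Human TrxR1 (15 nM) or GR (2 nM) preincubated 15 min with compound, 250 μM NADPH, 0.1 mg/ml BSA in 50 mM Tris pH 7.5, 2 mM EDTA, 1% DMSO. Reaction started with 2.5 mM DTNB (TrxR1, A412) or 1 mM GSSG (GR, A340). Percent activity relative to DMSO and no-enzyme blanks.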

A549/ATCC = assay: Cell growth inhibition GI50; format: cell-based; details: Homo sapiens, Non-Small Cell Lung Cancer
Procedure: (§1) Cell lines were plated 2000 cells/well in 96-well black optical plates in the presence of 10% FBS media containing 25 nM selenite. The following day cells were treated with various concentrations of the compound of Example 1 (0.1% DMSO final) and incubated for 72 hrs. After the incubation Cell-Quanti Blue reagent was added to each well and incubated for additional 3 hrs. Fluorescence was read ex:530 nm/em:590 nm, and percent of viability was determined using DMSO vehicle and no cell (blank) controls.
(§2) Further results obtained in similar experiments were as indicated below (GI50 refers to concentration of compound yielding 50% growth inhibition; E denotes an exponent to the base 10).

CCRF-CEM = assay: Cell growth inhibition GI50; format: cell-based; details: Homo sapiens, Leukemia
Procedure: as §1, §2

DU-145 = assay: Cell growth inhibition GI50; format: cell-based; details: Homo sapiens, Prostate Cancer
Procedure: as §1, §2

EKVX = assay: Cell growth inhibition GI50; format: cell-based; details: Homo sapiens, Non-Small Cell Lung Cancer
Procedure: as §1, §2

HCT-116 = assay: Cell growth inhibition GI50; format: cell-based; details: Homo sapiens, Colon Cancer
Procedure: as §1, §2

HCT-15 = assay: Cell growth inhibition GI50; format: cell-based; details: Homo sapiens, Colon Cancer
Procedure: as §1, §2

HL-60(TB) = assay: Cell growth inhibition GI50; format: cell-based; details: Homo sapiens, Leukemia
Procedure: as §1, §2

HOP-92 = assay: Cell growth inhibition GI50; format: cell-based; details: Homo sapiens, Non-Small Cell Lung Cancer
Procedure: as §1, §2

HS 5781 = assay: Cell growth inhibition GI50; format: cell-based; details: Breast Cancer
Procedure: as §1, §2

HT29 = assay: Cell growth inhibition GI50; format: cell-based; details: Homo sapiens, HT-29, Colon Cancer
Procedure: as §1, §2

K-562 = assay: Cell growth inhibition GI50; format: cell-based; details: Homo sapiens, K562, Leukemia
Procedure: as §1, §2

LOX IMVI = assay: Cell growth inhibition GI50; format: cell-based; details: Homo sapiens, Melanoma
Procedure: as §1, §2

MALME-3M = assay: Cell growth inhibition GI50; format: cell-based; details: Homo sapiens, Melanoma
Procedure: as §1, §2

MDA-MB-435 = assay: Cell growth inhibition GI50; format: cell-based; details: Homo sapiens, Melanoma
Procedure: as §1, §2

MDA-N = assay: Cell growth inhibition GI50; format: cell-based; details: Homo sapiens, Melanoma
Procedure: as §1, §2

NCI-H226 = assay: Cell growth inhibition GI50; format: cell-based; details: Homo sapiens, Non-Small Cell Lung Cancer
Procedure: as §1, §2

NCI-H322M = assay: Cell growth inhibition GI50; format: cell-based; details: Homo sapiens, Non-Small Cell Lung Cancer
Procedure: as §1, §2

NCI-H522 = assay: Cell growth inhibition GI50; format: cell-based; details: Homo sapiens, Non-Small Cell Lung Cancer
Procedure: as §1, §2

OVCAR-3 = assay: Cell growth inhibition GI50; format: cell-based; details: Homo sapiens, Ovarian Cancer
Procedure: as §1, §2

OVCAR-4 = assay: Cell growth inhibition GI50; format: cell-based; details: Homo sapiens, Ovarian Cancer
Procedure: as §1, §2

OVCAR-8 = assay: Cell growth inhibition GI50; format: cell-based; details: Homo sapiens, Ovarian Cancer
Procedure: as §1, §2

RPMI-8226 = assay: Cell growth inhibition GI50; format: cell-based; details: Homo sapiens, Leukemia
Procedure: as §1, §2

SF-268 = assay: Cell growth inhibition GI50; format: cell-based; details: Homo sapiens, CNS Cancer
Procedure: as §1, §2

SK-MEL-28 = assay: Cell growth inhibition GI50; format: cell-based; details: Homo sapiens, Melanoma
Procedure: as §1, §2

SK-MEL-2 = assay: Cell growth inhibition GI50; format: cell-based; details: Homo sapiens, Melanoma
Procedure: as §1, §2

SK-MEL-5 = assay: Cell growth inhibition GI50; format: cell-based; details: Homo sapiens, Melanoma
Procedure: as §1, §2

SN12C = assay: Cell growth inhibition GI50; format: cell-based; details: Homo sapiens, Renal Cancer
Procedure: as §1, §2

SR = assay: Cell growth inhibition GI50; format: cell-based; details: Homo sapiens, Leukemia
Procedure: as §1, §2

TK-10 = assay: Cell growth inhibition GI50; format: cell-based; details: Homo sapiens, Renal Cancer
Procedure: as §1, §2

U251 = assay: Cell growth inhibition GI50; format: cell-based; details: Homo sapiens, U-251, CNS Cancer
Procedure: as §1, §2

UACC-62 = assay: Cell growth inhibition GI50; format: cell-based; details: Homo sapiens, Melanoma
Procedure: as §1, §2

UO-31 = assay: Cell growth inhibition GI50; format: cell-based; details: Homo sapiens, Renal Cancer
Procedure: as §1, §2

`O=C1C=C[C@H]2[C@@H]3C(=O)N(c4ccccc4)C(=O)[C@@H]3[C@@H]1N2Cc1ccccc1` (relative stereo) [Example 1, exo-11-Benzyl-4-phenyl-4,11-diazatricyclo[5.3.1.0^2,6]undec-9-ene-3,5,8-trione Trifluoroacetate] was tested, and the IC50 ([1]; Biological Example 1, 2 nM GR, 250 μM NADPH, 15 minutes incubation) was greater than 100 µM, the IC50 ([1]; Biological Example 4, assays of Biological Example 1) was greater than 100 µM and the GI50 (A549/ATCC) was 14.9 µM. The GI50 (CCRF-CEM) was 0.942 µM, the GI50 (DU-145) was 9.66 µM and the GI50 (EKVX) was 7.78 µM. The GI50 (HCT-116) was 1.56 µM, the GI50 (HCT-15) was 1.74 µM and the GI50 (HL-60(TB)) was 1.17 µM. For the same molecule, the GI50 (HOP-92) was 3.66 µM, the GI50 (HS 5781) was 3.51 µM and the GI50 (HT29) was 1.79 µM. The GI50 (K-562) was 1.67 µM, the GI50 (LOX IMVI) was 1.61 µM and the GI50 (MALME-3M) was 4.62 µM. The GI50 (MDA-MB-435) was 2.72 µM, the GI50 (MDA-N) was 3.14 µM and the GI50 (NCI-H226) was 7.26 µM. It also gave a GI50 (NCI-H322M) of 10.2 µM, a GI50 (NCI-H522) of 2.68 µM and a GI50 (OVCAR-3) of 3.44 µM. For the same molecule, the GI50 (OVCAR-4) was 5.53 µM, the GI50 (OVCAR-8) was 2.88 µM and the GI50 (RPMI-8226) was 1.59 µM. It also gave a GI50 (SF-268) of 3.34 µM, a GI50 (SK-MEL-28) of 3.01 µM and a GI50 (SK-MEL-2) of 4.37 µM. For the same molecule, the GI50 (SK-MEL-5) was 3.56 µM, the GI50 (SN12C) was 1.64 µM and the GI50 (SR) was 1.87 µM. It also gave a GI50 (TK-10) of 8.07 µM, a GI50 (U251) of 2.29 µM and a GI50 (UACC-62) of 2.01 µM. It also gave a GI50 (UO-31) of 3.42 µM.
